Measurements published in PubChem BioAssay (NCI).
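Exposure lasted 48 hours, with cells grown in 96-well plates and compounds tested at five concentrations. TGI marks complete inhibition of growth.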

Experiments:
Test in all cases: inhibition of tumour cell growth, NCI panel, 48 h
HOP-62 NSCLC = system: HOP-62 NSCLC
SNB-19 CNS = system: SNB-19 CNS
MDA-MB-231 breast = system: MDA-MB-231 breast
K-562 leukemia = system: K-562 leukemia
SF-539 CNS = system: SF-539 CNS
MDA-N = system: MDA-N
HL-60(TB) leukemia = system: HL-60(TB) leukemia
SK-MEL-28 melanoma = system: SK-MEL-28 melanoma
SK-MEL-5 melanoma = system: SK-MEL-5 melanoma
OVCAR-8 ovarian = system: OVCAR-8 ovarian

SMILES	TGI (HOP-62 NSCLC)	TGI (SNB-19 CNS)	TGI (MDA-MB-231 breast)	TGI (K-562 leukemia)	TGI (SF-539 CNS)	TGI (MDA-N)	TGI (HL-60(TB) leukemia)	TGI (SK-MEL-28 melanoma)	TGI (SK-MEL-5 melanoma)	TGI (OVCAR-8 ovarian)
O=C(NN1C(=O)c2ccccc2C1=O)c1ccccc1Nc1ccccc1C(=O)NN1C(=O)c2ccccc2C1=O	> 100 µM	> 100 µM	> 100 µM	> 100 µM	> 100 µM	> 100 µM	> 100 µM	> 100 µM	> 100 µM	> 100 µM
O=Cc1ccc2c(c1)CC1(C2)Cc2ccc(C=O)cc2C1	37.2 µM	89.2 µM	34.1 µM	12.9 µM	15.1 µM	5.99 µM	5.72 µM	59.1 µM	16.7 µM	31.3 µM
CC(=C(C(=O)O)C(=O)O)c1cc(-c2cccs2)cc(-c2ccc(Cl)cc2)c1O	60.4 µM	37.1 µM	43.5 µM	> 53.6 µM	29.8 µM	31.4 µM	46.6 µM	36.3 µM	> 52.8 µM	52.8 µM
COC(=O)C(Cc1c[nH]c2ccccc12)NP(=O)(O)OCC1OC(n2cc(F)c(=O)[nH]c2=O)CC1O (stereo not given)	> 100 µM	> 100 µM	> 100 µM	> 100 µM	> 100 µM	> 100 µM	> 100 µM	> 100 µM	> 100 µM	> 100 µM
CNC(=S)NNC1=NCCCCN1	> 100 µM	> 100 µM	> 100 µM	> 100 µM	> 100 µM	> 100 µM	> 100 µM	> 100 µM	> 100 µM	> 100 µM
C=C(Cl)C(Br)(CBr)CCC(Br)C(C)(C)Br (stereo not given)	> 10 µM	> 10 µM	3.38 µM	> 10 µM	4.92 µM	> 10 µM	> 1 µM	> 10 µM	> 10 µM	> 1 µM
O=C(CCCN1CC=C(n2c(=O)[nH]c3ccccc32)CC1)c1cccs1	> 100 µM	> 100 µM	> 100 µM	> 100 µM	> 100 µM	> 100 µM	> 100 µM	> 100 µM	> 100 µM	> 100 µM
COc1cc(/C=C2\N=C(c3ccccc3)N(/N=C/c3cc4cc(C)ccc4nc3Cl)C2=O)cc(OC)c1OC	> 100 µM	> 100 µM	> 100 µM	> 100 µM	41.8 µM	48.6 µM	28.2 µM	> 100 µM	> 100 µM	> 100 µM
N#CC(C#N)=C1CCCCc2ccc([N+](=O)[O-])cc21	> 100 µM	> 100 µM	> 100 µM	> 100 µM	> 100 µM	> 100 µM	> 100 µM	> 100 µM	> 100 µM	> 100 µM
C/C(=N/NC(=S)N1CCCC1)c1cccc(/C(C)=N\NC(=S)N2CCCC2)n1	0.891 µM	12.1 µM	3.23 µM	> 100 µM	3.72 µM	3.89 µM	4.88 µM	5.09 µM	2.69 µM	2.35 µM
COC(=O)[C@]12CSC[C@H]1C[C@H](c1ccc(N(C)C)cc1)N2	> 100 µM	> 100 µM	> 100 µM	> 100 µM	> 100 µM	> 100 µM	> 100 µM	> 100 µM	> 100 µM	> 100 µM
COC(=O)/C=C(\S/C(=C(/c1ccc(OC)cc1)n1cc(C(=O)OC)c(C(=O)OC)n1)c1ccc(OC)cc1)C(=O)OC	> 100 µM	> 100 µM	> 100 µM	> 100 µM	> 100 µM	> 100 µM	7.64 µM	> 100 µM	> 100 µM	4.8 µM
NC(=O)NC(=O)c1ccc(NC(=O)CBr)cc1	4.81 µM	> 49.8 µM	6.48 µM	3.92 µM	6.35 µM	5 µM	3.27 µM	13.1 µM	3.23 µM	8.38 µM
C/C(=C/CNc1ncnc2c1ncn2CCC#N)CO	> 100 µM	> 100 µM	> 100 µM	> 100 µM	> 100 µM	> 100 µM	> 100 µM	> 100 µM	> 100 µM	> 100 µM
COC(=O)/C(C#N)=C(\Nc1ccccc1)N1CCCCC1	> 100 µM	> 100 µM	> 100 µM	> 100 µM	> 100 µM	> 100 µM	> 100 µM	> 100 µM	> 100 µM	> 100 µM
